According to patent US8680339B2, “Herbicides” (Syngenta Limited, priority 2009, dated 2014):

Tests used:
Format in all cases: in vivo
Avena fatua (AVEFA) [1] = experiment: Post-emergence herbicidal activity, glasshouse pot test; details: rate 250 g/ha, evaluated after 13 days, 100=total damage to plant, 0=no damage to plant; for pest or weed control at 250 g/ha: Avena fatua, 312 h
Method: (§1) Seeds of a variety of test species were sown in standard soil in pots. After cultivation for one day (pre-emergence) or after 8 days cultivation (post-emergence) under controlled conditions in a glasshouse (at 24/16° C., day/night; 14 hours light; 65% humidity), the plants were sprayed with an aqueous spray solution derived from the formulation of the technical active ingredient in acetone/water (50:50) solution containing 0.5% Tween 20 (polyoxyethelyene sorbitan monolaurate, CAS RN 9005-64-5). The test plants were then grown in a glasshouse under controlled conditions in a glasshouse (at 24/16° C., day/night; 14 hours light; 65% humidity) and watered twice daily. After 13 days for pre and post-emergence, the test was evaluated (100=total damage to plant; 0=no damage to plant). Test Plants: Lolium perenne (LOLPE), Alopecurus myosuroides (ALOMY), Echinochloa crus-galli (ECHCG), and Avena fatua (AVEFA). Post-Emergence Activity

[2] = tested on: Alopecurus myosuroides (ALOMY); experiment: as above; details: rate 250 g/ha, evaluated after 13 days, 100=total damage to plant, 0=no damage to plant; for pest or weed control at 250 g/ha: Alopecurus myosuroides, 312 h
Method: as §1

Lolium perenne (LOLPE) [3] = experiment: as above; details: rate 250 g/ha, evaluated after 13 days, 100=total damage to plant, 0=no damage to plant; for pest or weed control at 250 g/ha: Lolium perenne, 312 h
Method: as §1

[4] = tested on: Echinochloa crus-galli (ECHCG); experiment: as above; details: rate 250 g/ha, evaluated after 13 days, 100=total damage to plant, 0=no damage to plant; for pest or weed control at 250 g/ha: Echinochloa crus-galli, 312 h
Method: as §1

Avena fatua (AVEFA) [5] = experiment: Pre-emergence herbicidal activity, glasshouse pot test; details: rate 250 g/ha, evaluated after 13 days, 100=total damage to plant, 0=no damage to plant; for pest or weed control at 250 g/ha: Avena fatua, 312 h
Method: as §1, with “Pre-Emergence” for “Post-Emergence”

[6] = tested on: Alopecurus myosuroides (ALOMY); experiment: as above; details: rate 250 g/ha, evaluated after 13 days, 100=total damage to plant, 0=no damage to plant; for pest or weed control at 250 g/ha: Alopecurus myosuroides, 312 h
Method: as §1, with “Pre-Emergence” for “Post-Emergence”

Lolium perenne (LOLPE) [7] = experiment: as above; details: rate 250 g/ha, evaluated after 13 days, 100=total damage to plant, 0=no damage to plant; for pest or weed control at 250 g/ha: Lolium perenne, 312 h
Method: as §1, with “Pre-Emergence” for “Post-Emergence”

[8] = tested on: Echinochloa crus-galli (ECHCG); experiment: as above; details: rate 250 g/ha, evaluated after 13 days, 100=total damage to plant, 0=no damage to plant; for pest or weed control at 250 g/ha: Echinochloa crus-galli, 312 h
Method: as §1, with “Pre-Emergence” for “Post-Emergence”

SMILES | pest or weed control at 250 g/ha (Avena fatua (AVEFA) [1]) | pest or weed control at 250 g/ha [2] | pest or weed control at 250 g/ha (Lolium perenne (LOLPE) [3]) | pest or weed control at 250 g/ha [4] | pest or weed control at 250 g/ha (Avena fatua (AVEFA) [5]) | pest or weed control at 250 g/ha [6] | pest or weed control at 250 g/ha (Lolium perenne (LOLPE) [7]) | pest or weed control at 250 g/ha [8] | damage to plant ALOMY [2] | damage to plant LOLPE (Lolium perenne (LOLPE) [3]) | damage to plant AVEFA (Avena fatua (AVEFA) [5]) | damage to plant AVEFA (Avena fatua (AVEFA) [1]) | damage to plant ECHCG [4] | damage to plant ALOMY [6] | damage to plant LOLPE (Lolium perenne (LOLPE) [7]) | damage to plant ECHCG [8]
Cc1cc(Oc2ccc(C(F)(F)F)cn2)cc(C)c1C1=C(O)[C@H]2[C@H]3CC[C@H](C3)[C@H]2C1=O [Compound A-17, meso-(3aS,4S,7R,7aR)-2-[2,6-dimethyl-4-(5-trifluoromethylpyridin-2-yloxy)phenyl]-hexahydro-4,7-methanoindene-1,3-dione] | 10% | 10% | 10% | 40% | 0% | 0% | 0% | 30% | – | – | – | – | – | – | – | –
Cc1cc(Oc2ncc(Cl)cc2F)cc(C)c1C1=C(O)[C@H]2[C@H]3CC[C@H](C3)[C@H]2C1=O [Compound A-18] | 30% | 30% | 10% | 70% | 0% | 10% | 0% | 40% | – | – | – | – | – | – | – | –
Cc1cc(Oc2ccc(C(F)(F)F)cn2)cc(C)c1C1=C(O)C2C(C1=O)[C@H]1CC[C@@H]2CC1 (stereo partly shown) [Compound A-19] | 10% | 10% | 0% | 60% | 0% | 0% | 0% | 10% | – | – | – | – | – | – | – | –
Cc1cc(Oc2ncc(Cl)cc2F)cc(C)c1C1=C(O)C2C(C1=O)[C@H]1CC[C@@H]2CC1 (stereo partly shown) [Compound A-20, 2-[4-(5-chloro-3-fluoropyridin-2-yloxy)-2,6-dimethylphenyl]hexahydro-4,7-ethanoindene-1,3-dione] | 20% | 50% | 30% | 70% | 0% | 40% | 20% | 60% | – | – | – | – | – | – | – | –
Cc1cc(Oc2cnc3cc(Cl)ccc3n2)cc(C)c1C1=C(O)C2C(C1=O)[C@H]1CC[C@@H]2CC1 (stereo partly shown) [Compound A-21] | 0% | 10% | 0% | 70% | 0% | 10% | 30% | 50% | – | – | – | – | – | – | – | –
Cc1cc(Oc2cnc3cc(Cl)ccc3n2)cc(C)c1C1=C(O)[C@H]2[C@@H](C1=O)[C@@H]1CC[C@H]2O1 [Compound A-22] | 100% | – | – | 90% | – | 50% | 80% | 90% | 100 | 100 | 50 | – | – | – | – | –
Cc1cc(Oc2cnc3cc(Cl)ccc3n2)cc(C)c1C1=C(O)[C@H]2[C@@H](C1=O)[C@@H]1CC[C@H]2O1 [Compound A-23] | – | – | – | – | – | – | – | – | 60 | 50 | 20 | 80 | 70 | 30 | 90 | 90
Cc1cc(Oc2ncc(Cl)cc2F)cc(C)c1C1=C(O)[C@H]2[C@@H](C1=O)[C@@H]1CC[C@H]2O1 [Compound A-24] | 80% | 80% | 90% | 90% | – | – | 80% | 70% | – | – | 60 | – | – | 100 | – | –
Cc1cc(Oc2ncc(Cl)cc2F)cc(C)c1C1=C(O)[C@H]2[C@@H](C1=O)[C@@H]1CC[C@H]2O1 [Compound A-25] | – | – | – | – | – | – | – | – | 90 | 80 | 30 | 70 | 70 | 40 | 80 | 70
Cc1cc(Oc2ncc(Cl)cc2Cl)cc(C)c1C1=C(O)[C@H]2[C@@H](C1=O)[C@@H]1CC[C@H]2O1 [Compound A-26] | 70% | 100% | 100% | 90% | 60% | 90% | 100% | 100% | – | – | – | – | – | – | – | –
CCc1cc(Oc2ccc(Cl)cc2)ccc1C1=C(O)CCC1=O [Compound A-32, 2-[4-(4-chlorophenoxy)-2-ethylphenyl]cyclopentane-1,3-dione] | 0% | 0% | 0% | 0% | 0% | 0% | 10% | 50% | – | – | – | – | – | – | – | –
Cc1cc(Oc2ccc(Cl)cc2)cc(C)c1C1=C(O)CC(CC2CCOCC2)C1=O (stereo not shown) [Compound A-34] | 60% | 80% | 70% | 80% | 30% | 80% | 70% | 70% | – | – | – | – | – | – | – | –
CCc1cc(Oc2ccc3cc(Cl)ccc3n2)ccc1C1=C(O)CCC1=O [Compound A-35] | 0% | 0% | 20% | 80% | 0% | 0% | 0% | 70% | – | – | – | – | – | – | – | –
Cc1cc(Oc2ccc3cc(Cl)ccc3n2)cc(C)c1C1=C(O)CC(CC2CCOCC2)C1=O (stereo not shown) [Compound A-37, 2-[4-(6-chloroquinolin-2-yloxy)-2,6-dimethylphenyl]-4-(tetrahydropyran-4-ylmethyl)cyclopentane-1,3-dione] | 60% | 50% | 40% | 80% | 10% | 10% | 0% | 90% | – | – | – | – | – | – | – | –
CCc1cc(Oc2ccc3cc(Cl)ccc3n2)ccc1C1=C(O)[C@H]2[C@@H](C1=O)[C@@H]1CC[C@H]2O1 [Compound A-38] | 80% | 90% | 80% | 100% | 0% | 80% | 70% | 100% | – | – | – | – | – | – | – | –
Cc1cc(Oc2ccc(Cl)cc2)cc(C)c1C1=C(OC(=O)C(C)(C)C)[C@H]2[C@@H](C1=O)[C@@H]1CC[C@H]2O1 [Compound P-3] | 100% | 90% | 100% | 100% | 90% | 100% | 90% | 100% | – | – | – | – | – | – | – | –
Cc1cc(Oc2ccc(F)cc2)cc(C)c1C1=C(OC(=O)C(C)(C)C)[C@H]2[C@@H](C1=O)[C@@H]1CC[C@H]2O1 [Compound P-4] | 60% | 90% | 70% | 90% | 70% | 80% | 90% | 100% | – | – | – | – | – | – | – | –
